Laboratory results taken from publication PMC9734143, “An efficient human stem cells derived cardiotoxicity testing platform for testing oncotherapeutic analogues of quercetin and cinnamic acid” (Scientific Reports, 2022).

How the values were obtained:
[1] = system: WJMSC-derived cardiomyocytes (WJCM); experiment: Intracellular ROS assay in WJCM; format: cell-based, human; conditions: 24 h; analogues at Vero IC50 concentration
Procedure: (§1) Generation of ROS was detected using Fluorometric intracellular ROS kit (Sigma Aldrich, MO, USA) as per manufacturer’s protocol. Fluorescence was measured at excitation and emission of 650 nm and 675 nm respectively via multimode plate reader[50],[51].

[2] = system: H9C2 cells; experiment: MTT cell viability assay in H9C2 cells; format: cell-based, rat; conditions: 24 h, analogues at Vero IC50 concentration
Procedure: (§2) Similarly, the toxicity of these compounds in terms of the viability of cells was estimated by using the MTT assay and cell counting kit-8 (CCK-8) assay. For MTT assay, after 24 h of treatments, MTT (5 mg/ml of PBS; HiMedia, India) was added, and cells were incubated for 2 h at 37 °C. The formazan crystals that were formed after the incubation were dissolved using dimethyl sulfoxide (DMSO). For the CCK-8 assay, 10 μL of CCK-8 solution (Boster Biological Technology, Pleasanton, CA, USA) was added to each well and incubated for 2 h at 37 °C. The absorbance for MTT and CCK-8 assay was measured at 570 nm and 450 nm respectively using the EnSight™ Multimode plate reader (Perkin Elmer, MA, USA)[49],[50].

[3] = system: WJMSC-derived cardiomyocytes (WJCM); experiment: TMRE mitochondrial membrane potential assay in WJCM; format: cell-based, human; conditions: 24 h; analogues at Vero IC50 concentration
Procedure: (§3) Mitochondrial membrane potential of the cells after drug treatment was detected using tetramethylrhodamine ethyl ester dye (TMRE; Molecular Probes, CA, USA). The cells were incubated with 0.3 µM TMRE dye and incubated at 37 °C for 30 min in dark. Fluorescence intensity of TMRE was measured at excitation and emission of 549 nm and 574 nm respectively via a multimode plate reader.

[4] = system: H9C2 cells; experiment: Griess assay (NO release) in H9C2 cells; format: cell-based, rat; conditions: 24 h; analogues at Vero IC50 concentration
Procedure: (§4) Nitric oxide (NO) release was estimated using the Griess assay. Briefly, after 24 h of drug treatment, Griess reagent (Sigma Aldrich, MO, USA) was added to cells in equal volume and incubated for 30 min in the dark, and absorbance was taken at 540 nm via multimode plate reader.

[5] = system: WJMSC-derived cardiomyocytes (WJCM); experiment: MTT and CCK-8 cell viability assays in WJCM; format: cell-based, human; conditions: 24 h; analogues at Vero IC50 concentration; Dox 1 µM
Procedure: as §2

[6] = system: H9C2 cells; experiment: LDH release assay in H9C2 cells; format: cell-based, rat; conditions: 24 h; analogues at Vero IC50 concentration
Procedure: (§5) The experiment was performed as per the manufacturer’s protocol. Absorbance was taken at 490 nm and 680 nm (background signal) using multimode plate reader. LDH activity was calculated by subtracting absorbance taken at 680 nm from 490 nm.

[7] = system: cardiac markers (NKX2.5, GATA4, Troponin I, Troponin T, MHCα) in WJCM; experiment: qRT-PCR gene expression of cardiac-specific markers in WJCM; conditions: qRT-PCR; analogues at Vero IC50 concentration
Procedure: Differentiation of WJMSCs was done using a proprietary combination of DNMT and HDAC inhibitors in KO-DMEM/F-12 containing 10% FBS for 48 h. Induction media was replaced with culture media i.e. KO-DMEM/F-12 with 1X GlutaMAX and, 10% FBS after 48 h for 7 days[23].
WJMSC-derived cardiomyocytes (WJCM) and H9C2 were treated with NMJ and QMJ analogues for 24 h. […] To illustrate the toxicity specific to cardiac cells and not a general cytotoxicity, WJMSCs were treated with positive cardiotoxic drugs.
Total ribonucleic acid (RNA) was isolated using RNAiso Plus (TaKaRa, Shiga, Japan) followed by cDNA conversion using PrimeScript™ 1st strand cDNA synthesis kit (TaKaRa, Shiga, Japan). Quantitative reverse transcriptase-polymerase chain reaction (qRT-PCR) was performed by using TB Green™ Premix Ex Taq™ II (Tli RNase H Plus; TaKaRa, Shiga, Japan) for cardiac markers in a QuantStudio™ 5 real-time PCR Systems (Applied Biosystems, USA). All the primers were purchased from Sigma Aldrich, Bangalore, India (Table 1). The relative gene expression was calculated using 2^-∆∆CT and GAPDH, a housekeeping gene was used as endogenous control[52],[53].

[8] = system: WJMSC-derived cardiomyocytes (WJCM); experiment: LDH release assay in WJCM; format: cell-based, human; conditions: 24 h; analogues at Vero IC50 concentration
Procedure: as §5

[9] = system: cardiomyocytes (WJCM and H9C2 cells); experiment: Cardiotoxicity across parameters as summarised in the discussion (WJCM and H9C2 cells); format: cell-based, human and rat; conditions: for overall cardiotoxicity across the parameters analyzed: analogues at Vero IC50 concentration, 24 h; for active mitochondria status in treated cardiomyocytes / cytotoxic effect against cardiomyocytes by MTT, CCK-8 and LDH assay / intracellular calcium level in treated cardiomyocytes: discussion summary, cell model not specified
From the text: We investigated the effects of 3-hydroxyflavone (QMJ-2, QMJ-5, and QMJ-6) and cinnamyl sulfonamide-hydroxamate (NMJ-1, NMJ-2, NMJ-3) in WJCM and H9C2 cells using the concentrations reported for non-cancerous Vero cells. The prerequisite for any synthesized drug molecules is that they should be nontoxic to cardiac cells.

[10] = system: Vero, a non-cancerous cell line; design: method as in PMID 25824412, PMID 30687400; conditions: read-out: IC50 in Vero cells; cited from earlier work
[11] = system: H9C2 cells; experiment: Intracellular ROS assay in H9C2 cells; format: cell-based, rat; conditions: 24 h; analogues at Vero IC50 concentration
Procedure: as §1

[12] = system: H9C2 cells; experiment: Fura-2AM intracellular calcium assay in H9C2 cells; format: cell-based, rat; conditions: 24 h; analogues at Vero IC50 concentration
Procedure: (§6) Intracellular calcium flux was measured using the fluorescent radiometric Ca^2+ indicator, Fura-2 acetoxymethyl ester (Fura-2, AM; Invitrogen, Carlsbad, USA). Briefly, after 24 h of treatment, Fura-2AM (1 μmol/L) was added to cells and incubated for 30 min at 37 °C. The intracellular calcium flux was measured at excitation of 340 nm and 380 nm and emission of 510 nm using a multimode plate reader.

[13] = system: WJMSC-derived cardiomyocytes (WJCM); experiment: Fura-2AM intracellular calcium assay in WJCM; format: cell-based, human; conditions: 24 h; analogues at Vero IC50 concentration
Procedure: as §6

[14] = system: H9C2 cells; experiment: TMRE mitochondrial membrane potential assay in H9C2 cells; format: cell-based, rat; conditions: 24 h; analogues at Vero IC50 concentration
Procedure: as §3

[15] = system: WJMSC-derived cardiomyocytes (WJCM); experiment: Griess assay (NO release) in WJCM; format: cell-based, human; conditions: 24 h
Procedure: as §4

## COc1ccc2c(=O)c(O)c(-c3ccc(C)cc3)oc2c1 [QMJ-6, 3-Hydroxy-7-methoxy-2-(4-methylphenyl)-4H-1-benzopyran-4-one]
[1]
  ROS activity in WJCM: lowered ROS activity
[2]
  viability of H9C2 cells (MTT), result in words: increase in viability
[3]
  mitochondrial membrane potential in WJCM (TMRE): increased mitochondrial membrane potential
[4]
  NO level in H9C2 cells (Griess): elevated NO levels
[5]
  toxicity / cell viability in WJCM (MTT, CCK-8), result in words: less toxic
[6]
  LDH release in H9C2 cells: no to little change
[7]
  GATA4 gene expression in WJCM: marked upregulation
  MHCα gene expression in WJCM: marked upregulation
  NKX2.5 gene expression in WJCM: significant increase
  Troponin I gene expression in WJCM: marked upregulation
  Troponin T gene expression in WJCM, increase: 8–10 fold
[8]
  LDH release in WJCM: no to little change
[9]
  overall cardiotoxicity across the parameters analyzed: do not display significant cardiotoxicity
  active mitochondria status in treated cardiomyocytes: remains unaffected
  cytotoxic effect against cardiomyocytes by MTT, CCK-8 and LDH assay: no cytotoxic effect
  intracellular calcium level in treated cardiomyocytes: remained low
[10]
  IC50: 153 µM
[11]
  ROS activity in H9C2 cells: lowered ROS activity
[12]
  intracellular Ca2+ accumulation in H9C2 cells (Fura-2AM): decrease in Ca^2+ accumulation
[13]
  intracellular Ca2+ accumulation in WJCM (Fura-2AM): decrease in Ca^2+ accumulation
[14]
  mitochondrial membrane potential in H9C2 cells (TMRE): increased mitochondrial membrane potential

## O=C(/C=C/c1ccc(S(=O)(=O)NCCc2cccs2)cc1)NO [NMJ-2]
[1]
  ROS activity in WJCM: lowered ROS activity
[4]
  NO level in H9C2 cells (Griess): elevated NO levels
[15]; analogues at Vero IC50 concentration
  NO level in WJCM (Griess), result in words: elevated NO levels
[5]
  toxicity / cell viability in WJCM (MTT, CCK-8), result in words: less toxic
[6]
  LDH release in H9C2 cells: increase in LDH
[7]
  GATA4 gene expression in WJCM: marked upregulation
  MHCα gene expression in WJCM: marked upregulation
  NKX2.5 gene expression in WJCM: significant increase
  Troponin I gene expression in WJCM: marked upregulation
  Troponin T gene expression in WJCM, result in words: milder increase
[8]
  LDH release in WJCM: increase in LDH
[9]
  overall cardiotoxicity across the parameters analyzed: do not display significant cardiotoxicity
  active mitochondria status in treated cardiomyocytes: remains unaffected
  cytotoxic effect against cardiomyocytes by MTT, CCK-8 and LDH assay: no cytotoxic effect
  intracellular calcium level in treated cardiomyocytes: remained low
[10]
  IC50: 8.2 µM
[12]
  intracellular Ca2+ accumulation in H9C2 cells (Fura-2AM): decrease in Ca^2+ accumulation
[13]
  intracellular Ca2+ accumulation in WJCM (Fura-2AM): decrease in Ca^2+ accumulation
[14]
  mitochondrial membrane potential in H9C2 cells (TMRE): increased mitochondrial membrane potential

## O=C(/C=C/c1ccc(S(=O)(=O)NCc2ccco2)cc1)NO [NMJ-3]
[1]
  ROS activity in WJCM: lowered ROS activity
[2]
  viability of H9C2 cells (MTT), result in words: increase in viability
[2]; Dox 1 µM
  decrease in viability of H9C2 cells (MTT): 10–20%
[3]
  mitochondrial membrane potential in WJCM (TMRE): increased mitochondrial membrane potential
[15]; NMJ-3 at 15.1 µM
  decrease of NO level in WJCM (Griess): 12%
[5]
  toxicity / cell viability in WJCM (MTT, CCK-8), result in words: less toxic
[6]
  LDH release in H9C2 cells: no to little change
[7]
  GATA4 gene expression in WJCM: marked upregulation
  MHCα gene expression in WJCM: marked upregulation
  Troponin I gene expression in WJCM: marked upregulation
  Troponin T gene expression in WJCM, increase: 8–10 fold
[8]
  LDH release in WJCM: no to little change
[9]
  overall cardiotoxicity across the parameters analyzed: do not display significant cardiotoxicity
  active mitochondria status in treated cardiomyocytes: remains unaffected
  cytotoxic effect against cardiomyocytes by MTT, CCK-8 and LDH assay: no cytotoxic effect
  intracellular calcium level in treated cardiomyocytes: remained low
[10]
  IC50: 15.1 µM
[11]
  ROS activity in H9C2 cells: lowered ROS activity
[12]
  intracellular Ca2+ accumulation in H9C2 cells (Fura-2AM): decrease in Ca^2+ accumulation
[13]
  intracellular Ca2+ accumulation in WJCM (Fura-2AM): decrease in Ca^2+ accumulation
[14]
  mitochondrial membrane potential in H9C2 cells (TMRE): increased mitochondrial membrane potential
